Test results published in patent publication US6680054B1 (priority 1996, dated 2004).

Assays:
[1] = tested on: NWS/G70C influenza A virus
influenza strain G70C = format: cell-based

Substance | amount of virus clearly detected [1] | compound concentration giving the best result [1] [µM] | detection signal at higher concentrations of compound [1] | detection signal at lower concentrations [1] | Lowest Concentration (μM of GG167 units) that Inhibited Agglutination, G70C (influenza strain G70C) [µM]
GG167-Bovine Serum Albumin-Biotin conjugate [Compound 3a] | 10^6 pfu | 0.1 | the signal was weaker | the detection signal was also weaker | –
Fetuin | – | – | – | – | 0.73
